In US11771738B2 (Zoetis Services LLC, priority 2018, dated 2023):
Like-named read-outs stand apart in the source and are kept apart here.

Key:
Type in all cases: cell-based
[1] = test system: microfilariae of Dirofilaria immitis; test: Dirofilaria immitis, Microfilaria (DiMf) In Vitro Assay; settings: Dirofilaria immitis, 72 h, read-out: DiMf MED, Minimum Effective Dose, D. immitis microfilariae motility, in vitro
[2] = test system: D. immitis L4 larvae; test: Dirofilaria immitis, L4 Stage (DiL4) In Vitro Assay; settings: for minimal effective concentration: Dirofilaria immitis, 72 h, read-out: DiL4 MED, Minimum Effective Dose, D. immitis L4 larvae motility, in vitro; for DiMf/DiL4: larval stage selectivity, ratio of DiMf MED to DiL4 MED
[3] = test system: third stage larvae of Haemonchus contortus; test: Haemonchus contortus, Larvae Stage 3 (HcL3) In Vitro Assay; settings: Haemonchus contortus, 96 h
[4] = read-out: HcL3 MED, Minimum Effective Dose, H. contortus third stage larvae, approximately 96 hours
[5] = read-out: HcL3 MED (symbol after Ex#), approximately 96 hours incubation, multiple-resistant field isolate
[6] = read-out: HcL3 MED, approximately 96 hours incubation, multiple-resistant field isolate
[7] = read-out: HcL3 MED, Haemonchus contortus third stage larvae in vitro, class mark appended to the Ex # in Table 3

Row | SMILES | minimal effective concentration [1] [µM] | minimal effective concentration [2] [µM] | DiMf/DiL4 [2] | minimal effective concentration [3, 4] [µM] | minimal effective concentration [3, 5] [µM] | minimal effective concentration [3, 6] [µM] | minimal effective concentration [3, 7] [µM]
1 | CCN(CC)C(c1ccc(C[C@H]2OC(=O)[C@H](CC(C)C)N(C)C(=O)[C@@H](C)OC(=O)[C@H](CC(C)C)N(C)C(=O)[C@@H](Cc3ccccc3)OC(=O)[C@H](CC(C)C)N(C)C(=O)[C@@H](C)OC(=O)[C@H](CC(C)C)N(C)C2=O)cc1)c1ccc(F)c(F)c1 (stereo partly drawn) [Example 2-36, (3S,6R,9S,12R,15S,18R,21S,24R)-6-benzyl-18-(4-((diethylamino)(3,4-difluorophenyl)methyl)benzyl)-3,9,15,21-tetraisobutyl-4,10,12,16,22,24-hexamethyl-1,7,13,19-tetraoxa-4,10,16,22-tetraazacyclotetracosan-2,5,8,11,14,17,20,23-octaone] | 0.03 | 0.0002 | 150 | 1 |  |  | 
2 | COC(c1ccc(C[C@H]2OC(=O)[C@H](CC(C)C)N(C)C(=O)[C@@H](C)OC(=O)[C@H](CC(C)C)N(C)C(=O)[C@@H](Cc3ccccc3)OC(=O)[C@H](CC(C)C)N(C)C(=O)[C@@H](C)OC(=O)[C@H](CC(C)C)N(C)C2=O)cc1)c1ccc(F)c(F)c1 (stereo partly drawn) [Example 2-37, (3S,6R,9S,12R,15S,18R,21S,24R)-6-benzyl-18-(4-((3,4-difluorophenyl)(methoxy)methyl)benzyl)-3,9,15,21-tetraisobutyl-4,10,12,16,22,24-hexamethyl-1,7,13,19-tetraoxa-4,10,16,22-tetraazacyclotetracosan-2,5,8,11,14,17,20,23-octaone] | 0.02 | 0.001 | 20 | 3.3 | 1 to 3.3 |  | 
3 | CCOC(c1ccc(C[C@H]2OC(=O)[C@H](CC(C)C)N(C)C(=O)[C@@H](C)OC(=O)[C@H](CC(C)C)N(C)C(=O)[C@@H](Cc3ccccc3)OC(=O)[C@H](CC(C)C)N(C)C(=O)[C@@H](C)OC(=O)[C@H](CC(C)C)N(C)C2=O)cc1)c1ccc(F)c(F)c1 (stereo partly drawn) [Example 2-38, (3S,6R,9S,12R,15S,18R,21S,24R)-6-benzyl-18-(4-((3,4-difluorophenyl)(ethoxy)methyl)benzyl)-3,9,15,21-tetraisobutyl-4,10,12,16,22,24-hexamethyl-1,7,13,19-tetraoxa-4,10,16,22-tetraazacyclotetracosan-2,5,8,11,14,17,20,23-octaone] | 0.03 | 0.0006 | 50 | 0.5 | < 1 | ≤ 1 | 
4 | CC(C)C[C@H]1C(=O)O[C@H](Cc2ccc([C@@H](c3ccc(OC(F)(F)F)cc3)N3CCOCC3)cc2)C(=O)N(C)[C@@H](CC(C)C)C(=O)O[C@H](C)C(=O)N(C)[C@@H](CC(C)C)C(=O)O[C@H](Cc2ccccc2)C(=O)N(C)[C@@H](CC(C)C)C(=O)O[C@@H](C)C(=O)N1C [Example 2-42, (3S,6R,9S,12R,15S,18R,21S,24S)-6-benzyl-3,9,15,21-tetraisobutyl-4,10,12,16,22,24-hexamethyl-18-[[4-[(S)-morpholino-[4-(trifluoromethoxy)phenyl]-methyl]phenyl]methyl]-1,7,13,19-tetraoxa-4,10,16,22-tetrazacyclotetracosane-2,5,8,11,14,17,20,23-octaone] | 0.3 | 0.0003 | 1000 | > 10 |  |  | 
5 | CC(C)C[C@H]1C(=O)O[C@H](Cc2ccc(Cc3cccs3)cc2)C(=O)N(C)[C@@H](CC(C)C)C(=O)O[C@H](C)C(=O)N(C)[C@@H](CC(C)C)C(=O)O[C@H](Cc2ccc(Cc3cccs3)cc2)C(=O)N(C)[C@@H](CC(C)C)C(=O)O[C@H](C)C(=O)N1C [Example 3-4, (3S,6R,9S,12R,15S,18R,21S,24R)-3,9,15,21-tetraisobutyl-4,6,10,16,18,22-hexamethyl-12,24-bis(4-(thiophen-2-ylmethyl)benzyl)-1,7,13,19-tetraoxa-4,10,16,22-tetraazacyclotetracosan-2,5,8,11,14,17,20,23-octaone] | 0.02 | 0.0001 | 200 | 0.5 |  | ≤ 1 | < 1
6 | CC(C)C[C@H]1C(=O)O[C@H](Cc2ccc(Cc3ccco3)cc2)C(=O)N(C)[C@@H](CC(C)C)C(=O)O[C@H](C)C(=O)N(C)[C@@H](CC(C)C)C(=O)O[C@H](Cc2ccc(Cc3ccco3)cc2)C(=O)N(C)[C@@H](CC(C)C)C(=O)O[C@H](C)C(=O)N1C [Example 3-8, (3S,6R,9S,12R,15S,18R,21S,24R)-6,18-bis(4-(furan-2-ylmethyl)benzyl)-3,9,15,21-tetraisobutyl-4,10,12,16,22,24-hexamethyl-1,7,13,19-tetraoxa-4,10,16,22-tetraazacyclotetracosan-2,5,8,11,14,17,20,23-octaone] | 0.01 | 0.0003 | 33.3 | 1 |  | ≤ 1 | < 1
7 | CC(C)C[C@H]1C(=O)O[C@H](Cc2ccc(Cc3cncs3)cc2)C(=O)N(C)[C@@H](CC(C)C)C(=O)O[C@H](C)C(=O)N(C)[C@@H](CC(C)C)C(=O)O[C@H](Cc2ccc(Cc3cncs3)cc2)C(=O)N(C)[C@@H](CC(C)C)C(=O)O[C@H](C)C(=O)N1C [Example 3-12, (3S,6R,9S,12R,15S,18R,21S,24R)-3,9,15,21-tetraisobutyl-4,6,10,16,18,22-hexamethyl-12,24-bis(4-(thiazol-5-ylmethyl)benzyl)-1,7,13,19-tetraoxa-4,10,16,22-tetraazacyclotetracosan-2,5,8,11,14,17,20,23-octaone] | 0.0007 | 0.001 | 0.7 | 3.3 |  |  | 1 to 3.3
8 | CC(C)C[C@H]1C(=O)O[C@H](Cc2ccc(Cc3nccs3)cc2)C(=O)N(C)[C@@H](CC(C)C)C(=O)O[C@H](C)C(=O)N(C)[C@@H](CC(C)C)C(=O)O[C@H](Cc2ccc(Cc3nccs3)cc2)C(=O)N(C)[C@@H](CC(C)C)C(=O)O[C@H](C)C(=O)N1C [Example 3-17, (3S,6R,9S,12R,15S,18R,21S,24R)-3,9,15,21-tetraisobutyl-4,6,10,16,18,22-hexamethyl-12,24-bis(4-(thiazol-2-ylmethyl)benzyl)-1,7,13,19-tetraoxa-4,10,16,22-tetraazacyclotetracosan-2,5,8,11,14,17,20,23-octaone] | 0.0003 | 0.0003 | 1 | 0.5 |  | ≤ 1 | < 1
9 | CC(C)C[C@H]1C(=O)O[C@H](Cc2ccc(Cc3ncco3)cc2)C(=O)N(C)[C@@H](CC(C)C)C(=O)O[C@H](C)C(=O)N(C)[C@@H](CC(C)C)C(=O)O[C@H](Cc2ccc(Cc3ncco3)cc2)C(=O)N(C)[C@@H](CC(C)C)C(=O)O[C@H](C)C(=O)N1C [Example 3-18, (3S,6R,9S,12R,15S,18R,21S,24R)-3,9,15,21-tetraisobutyl-4,6,10,16,18,22-hexamethyl-12,24-bis(4-(oxazol-2-ylmethyl)benzyl)-1,7,13,19-tetraoxa-4,10,16,22-tetraazacyclotetracosan-2,5,8,11,14,17,20,23-octaone] | 0.0002 | 0.0001 | 2 | 1 |  | ≤ 1 | < 1
10 | Cc1noc(C)c1Cc1ccc(C[C@H]2OC(=O)[C@H](CC(C)C)N(C)C(=O)[C@@H](C)OC(=O)[C@H](CC(C)C)N(C)C(=O)[C@@H](Cc3ccc(Cc4c(C)noc4C)cc3)OC(=O)[C@H](CC(C)C)N(C)C(=O)[C@@H](C)OC(=O)[C@H](CC(C)C)N(C)C2=O)cc1 [Example 3-21, (3S,6R,9S,12R,15S,18R,21S,24R)-6,18-bis(4-((3,5-dimethylisoxazol-4-yl)methyl)benzyl)-3,9,15,21-tetraisobutyl-4,10,12,16,22,24-hexamethyl-1,7,13,19-tetraoxa-4,10,16,22-tetraazacyclotetracosan-2,5,8,11,14,17,20,23-octaone] | 0.0001 | < 3e-05 | >3.3 | 0.3 |  | ≤ 1 | < 1
11 | CC(C)C[C@H]1C(=O)O[C@H](Cc2ccc(Cc3ccnn3C)cc2)C(=O)N(C)[C@@H](CC(C)C)C(=O)O[C@H](C)C(=O)N(C)[C@@H](CC(C)C)C(=O)O[C@H](Cc2ccc(Cc3ccnn3C)cc2)C(=O)N(C)[C@@H](CC(C)C)C(=O)O[C@H](C)C(=O)N1C [Example 3-24, (3S,6R,9S,12R,15S,18R,21S,24R)-3,9,15,21-tetraisobutyl-4,6,10,16,18,22-hexamethyl-12,24-bis(4-((1-methyl-1H-pyrazol-5-yl)methyl)benzyl)-1,7,13,19-tetraoxa-4,10,16,22-tetraazacyclotetracosan-2,5,8,11,14,17,20,23-octaone] | 0.0001 | 3e-05 | 3.3 | 1 |  | ≤ 1 | < 1
